Test system: Exophiala dermatitidis CA01
Test: Broth microdilution chequerboard analysis of Lynovex (NM001) in combination with clinical antifungals
Type: cell-based
Conditions: for Antifungal MIC100 / Antifungal MIC50: antifungal in isolation; for Antifungal MIC100 / Antifungal MIC100 in Combination: 72 h; for Antifungal MIC100 / Antifungal MIC50 / Antifungal MIC100 in Combination / Antifungal MIC50 in Combination: 35° C.; for FICI: antifungal with Lynovex (NM001), <0.5 Synergy, 0.5-1 Additive, >1 Indifference; for Antifungal MIC100 in Combination / Antifungal MIC50 in Combination: in combination with Lynovex (NM001)
Procedure: The aim of the experiment was to determine the effect of Lynovex (NM001) on the antifungal drug susceptibility of Exophiala dermatitidis CA01. Microtitre plates were prepared following CLSI recommendations for broth microdilution chequerboard method. These plates contained a serial doubling dilution of Lynovex (NM001) combined with serial doubling dilutions of antifungals drugs; Fluconazole, Itraconazole, Caspofungin and Amphotericin B. […] These were incubated at 35° C. and read at 72 h, 96 h, 120 h and 144 h on the BioTek plate reader. […] Three independent E. dermatitidis CA01 cultures were grown on PDA slope for 6 days at 35° C. • 7. Cultures were removed from incubator. 2 ml sterile 0.15M NaCl added to the overnight culture and cells harvested from the surface of the agar. Cells placed in fresh bijou tube. • 8. The cultures were allowed to rest for up to 10 minutes, allowing any hyphae to settle to the bottom. The top layer of conidia was removed into fresh bijou. Hyphae were discarded. • 9. […] This is continued to F12 where 100 μl is removed and discarded. • f. This dilution series was repeated in rows G-H for the remaining 2 cultures • g. Plate read at OD530 on BioTek • h. […] This preparation step occurs in two parts. First, Lynovex (NM001) and antifungals are serially diluted, down and across microtitre plates, respectively. Equal volumes of Lynovex and antifungal are then combined in a fresh microtitre plate, prior to inoculation. […] Stock solutions of Lynovex and antifungals were prepared at 4× desired concentrations. The plate layout at the end of this protocol is the final concentration in the plate following the combination of Lynovex and antifungals and the addition of the inocula. […] All other wells contain 150 μl sterile dH2O. • 9. Serial doubling dilutions are carried out from A to B whereby 150 μl is removed from A and placed into B and mixed well. Then take 150 μl B and place in C and mix well. This is repeated down to row G where the final 150 μl is discarded. […] The same procedure is repeated for the other 4 antifungals, carrying the dilutions across the plate i.e. […] At the final dilution in column 10, the final 150 μl is discarded. […] Inoculating Plates with E. dermatitidis CA01 • 6. Add 100 μl (total volume 200 μl) of the prepared E. dermatitidis CA01 culture to the all wells on the plate except wells H12. […] H12 will contain 100 μl water and 100 μl 2×RPMI-1640 alone, constituting an uninoculated control. • 8. The plate is read in the BioTek at OD530. • 9. Plates are then placed in a plastic box containing a Petri dish of water, sealed and incubated at 35° C. The presence of the water in the dish or on the tissue provides and environment of relatively high humidity. • 10. OD530 is then read at 72 h, 96 h, 120 h and 144 h and raw data processed using Microsoft Excel. • 11. Fractional Inhibitory Concentration (FIC) Index values are generated using MIC100 for 72 h data and MIC50 for later time points using the following formula: […]

C[C@@H]1[C@H](O)[C@@H](C)/C=C/C=C/C=C/C=C/C=C/C=C/C=C/[C@H](O[C@@H]2O[C@H](C)[C@@H](O)[C@H](N)[C@@H]2O)C[C@@H]2O[C@](O)(C[C@@H](O)C[C@@H](O)[C@H](O)CC[C@@H](O)C[C@@H](O)CC(=O)O[C@H]1C)C[C@H](O)[C@H]2C(=O)O [Amphotericin B]
Antifungal MIC100 (GEOMEAN): 0.59 µg/mL | Antifungal MIC50 (GEOMEAN, 96 h): 0.47 µg/mL | Antifungal MIC50 (GEOMEAN, 120 h): 0.47 µg/mL | Antifungal MIC50 (GEOMEAN, 144 h): 0.59 µg/mL | FICI (GEOMEAN, MIC50, 96 h): 0.63 (2) | FICI (GEOMEAN, MIC50, 120 h): 0.58 (3) | FICI (GEOMEAN, MIC50, 144 h): 0.75 (2) | FICI (GEOMEAN, MIC100, 72 h): 0.53 (1) | Antifungal MIC100 in Combination (GEOMEAN): 0.23 µg/mL | Antifungal MIC50 in Combination (GEOMEAN, 96 h): 0.17 µg/mL | Antifungal MIC50 in Combination (GEOMEAN, 120 h): 0.19 µg/mL | Antifungal MIC50 in Combination (GEOMEAN, 144 h): 0.23 µg/mL | Antifungal MIC100 (MEAN): 0.86 µg/mL | Antifungal MIC50 (MEAN, 96 h): 0.47 µg/mL | Antifungal MIC50 (MEAN, 120 h): 0.47 µg/mL | Antifungal MIC50 (MEAN, 144 h): 0.63 µg/mL | FICI (MEAN, MIC50, 96 h): 0.64 (2) | FICI (MEAN, MIC50, 120 h): 0.59 (3) | FICI (MEAN, MIC50, 144 h): 0.75 (2) | FICI (MEAN, MIC100, 72 h): 0.53 (1) | Antifungal MIC100 in Combination (MEAN): 0.23 µg/mL | Antifungal MIC50 in Combination (MEAN, 96 h): 0.18 µg/mL | Antifungal MIC50 in Combination (MEAN, 120 h): 0.20 µg/mL | Antifungal MIC50 in Combination (MEAN, 144 h): 0.23 µg/mL | Antifungal MIC100 (Range): 0.23 to 1.88 µg/mL | Antifungal MIC50 (Range, 96 h): 0.47 µg/mL | Antifungal MIC50 (Range, 120 h): 0.5 µg/mL | Antifungal MIC50 (Range, 144 h): 0.47 to 0.94 µg/mL | Antifungal MIC100 in Combination (Range): 0.23 µg/mL | Antifungal MIC50 in Combination (Range, 96 h): 0.12 to 0.23 µg/mL | Antifungal MIC50 in Combination (Range, 120 h): 0.12 to 0.23 µg/mL | Antifungal MIC50 in Combination (Range, 144 h): 0.23 µg/mL
